Test results: patent publication US7939580B2, “Dental composition containing epoxy functional polymerizable compounds” (3M Innovative Properties Company, priority 2004, dated 2011)

Columns and labels:
[1] = Refractive index (Kruess AR 4 D Abbe refractometer); format: physicochemical; conditions: 20.0° C., wavelength 589 nm
Method: The refractive index of the halogenated epoxy functional ether derivative was measured with a Kruess AR 4 D device (refractometer according to Abbe's measure principle). The refractive index was measured at 20.0° C. and at a wavelength of 589 nm.

[2] = system: Salmonella Strains TA98 and TA100; assay: AMES mutagenicity testing protocol (OECD Guideline 471, ISO 10993-3); format: cell-based; design: key: tested to be non mutagenic
Source text: The mutagenicity of the halogenated epoxy functional ether derivative according to the AMES mutagenicity testing protocol has been tested according to OECD Guideline 471 and ISO 10993-3 (2003).

Row | Compound | Refractive Index [1] | Mutagenic [yes/no] [2]
1 | c1cc(OCC2CO2)ccc1Cc1ccc(OCC2CO2)cc1 (stereo not shown) [Reference Compound 3, Bis[4-(2,3-epoxy-propyloxy)-phenyl]-methane, reference compound] | 1.579 | –
2 | 1,5-Bis[2-(2,3-epoxy-propyl)-6-chloro-phenyl]-pentane [Example 1] | 1.552 | n^1)
3 | Clc1cccc(CC2CO2)c1OCCC1CO1 (stereo not shown) [Example 6, 4-[2-(2,3-epoxy-propyl)-6-chloro-phenoxy]-1,2-epoxybutane] | 1.535 | –
4 | CC(C)(c1ccc(OCCC2CO2)cc1)c1ccc(OCCC2CO2)cc1 (stereo not shown) [Reference Compound 4, 2,2-Bis[4-(3,4-epoxy-butyloxy)-phenyl]-propane, reference compound] | 1.563 | –
5 | C[Si](CCC1CCC2OC2C1)(CCC1CCC2OC2C1)c1ccccc1 (stereo not shown) [Reference Compound 2, Bis[2-(3,4-epoxycyclohexyl)-ethyl]-methyl-phenyl-silane, reference compound] | 1.536 | –
6 | 1,5-Bis[2-(2,3-epoxy-propyl)-4,6-dichloro-phenyl]-pentane [Example 2] | 1.561 | n^1)
7 | CC(C)(c1cc(Cl)c(OCCCC2CO2)c(Cl)c1)c1cc(Cl)c(OCCCC2CO2)c(Cl)c1 (stereo not shown) [Example 3, 2,2-Bis[3,5-dichloro-4-(4,5-epoxy-pentyloxy)-phenyl]-propane] | 1.571 | n^1)
8 | CC(C)(c1cc(Br)c(OCCCC2CO2)c(Br)c1)c1cc(Br)c(OCCCC2CO2)c(Br)c1 (stereo not shown) [Example 5, 2,2-Bis[3,5-dibromo-4-(4,5-epoxy-pentyloxy)-phenyl]-propane] | 1.604 | n^1)
9 | CC(C)(c1ccc(OCCCC2CO2)cc1)c1ccc(OCCCC2CO2)cc1 (stereo not shown) [Reference Compound 5, 2,2-Bis[4-(4,5-epoxy-pentyloxy)-phenyl]-propane, reference compound] | 1.551 | –
10 | CC(C)(c1cc(Br)c(OCCC2CO2)c(Br)c1)c1cc(Br)c(OCCC2CO2)c(Br)c1 (stereo not shown) [Example 4, 2,2-Bis[3,5-dibromo-4-(3,4-epoxy-butyloxy)-phenyl]-propane] | 1.610 | n^1)
11 | C[Si]1(CCC2CCC3OC3C2)O[Si](C)(CCC2CCC3OC3C2)O[Si](C)(CCC2CCC3OC3C2)O[Si](C)(CCC2CCC3OC3C2)O1 (stereo not shown) [Reference Compound 1, 1,3,5,7-Tetrakis[2-(3,4-epoxycyclohexyl)-ethyl]-1,3,5,7-tetramethyl-cyclotetrasiloxane, reference compound] | 1.496 | –
